The source of these data is PubChem BioAssay (NCI).

Structures are written as SMILES. Several values for one entry are separate records, joined by “and”; a condition that tells them apart may be missing. Equal values may be shown once.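 Grown in 96-well plates, cells were treated for 48 hours with each compound at five concentrations. Insufficient inhibition: endpoint recorded as highest concentration tested. GI50 is the concentration that inhibits growth by half. TGI denotes the concentration required for complete inhibition of growth.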 Some results are limits rather than exact numbers.

Some test systems named below: SK-MEL-2 melanoma; OVCAR-4 ovarian; OVCAR-5 ovarian; SW-620 colon; DLD-1 colon; A549 NSCLC; XF 498 CNS; MDA-MB-231 breast; T-47D breast; HL-60(TB) leukemia.
Assay in all cases: NCI anticancer screen, dose series, 48 h

On to `c1ccc2c(c1)[nH]c1c2ncc2[nH]c3ccccc3c21`, for which the TGI in the assay on SK-MEL-2 melanoma amounted to 33.7 µM; with OVCAR-4 ovarian, 3.79 µM; in the assay with OVCAR-5 ovarian, 22.9 µM; in the assay on SW-620 colon, 10.3 µM; in the assay with DLD-1 colon it was 19.7 µM; in the assay with A549 NSCLC, 22.6 µM. In the assay on XF 498 CNS, the TGI is 3.3 µM.

As to `Nc1nc(-c2cccs2)cs1`, the TGI in the assay with SK-MEL-2 melanoma, in the assay with OVCAR-4 ovarian, with OVCAR-5 ovarian, with MDA-MB-231 breast, in the assay on SW-620 colon and in the assay with A549 NSCLC was greater than 100 µM each time. Further, the TGI in the assay on T-47D breast and with HL-60(TB) leukemia was greater than 100 µM throughout.

As to `CCOC(=O)C(C(=O)OCC)=c1sc(=C(C(=O)OCC)C(=O)OCC)s1`, the TGI with SK-MEL-2 melanoma, with OVCAR-4 ovarian, in the assay with OVCAR-5 ovarian, in the assay on SW-620 colon, in the assay with DLD-1 colon and with A549 NSCLC was greater than 100 µM throughout. In the assay on HL-60(TB) leukemia, this compound showed a TGI greater than 100 µM.

As to `COc1ccc(C2C3=C(COC3=O)Oc3cc4c(cc32)OCO4)cc1` (centres undefined), the TGI in the assay on SK-MEL-2 melanoma, with OVCAR-4 ovarian, in the assay on SW-620 colon, in the assay on DLD-1 colon, in the assay with A549 NSCLC and in the assay on XF 498 CNS was greater than 100 µM throughout. The TGI with HL-60(TB) leukemia was determined as 25 µM.

As to `CCOC(=O)N1C=CC(=C2C(=C3C=CN(C(=O)OCC)C=C3)C(=C3C=CN(C(=O)OCC)C=C3)C2=C2C=CN(C(=O)OCC)C=C2)C=C1`, the TGI was greater than 100 µM in the assay with SK-MEL-2 melanoma; greater than 100 µM with OVCAR-4 ovarian; greater than 100 µM in the assay with OVCAR-5 ovarian; 70.5 µM with MDA-MB-231 breast; greater than 100 µM with SW-620 colon; greater than 100 µM in the assay with A549 NSCLC. For the same compound, the TGI with T-47D breast and with HL-60(TB) leukemia was greater than 100 µM throughout.

Consider `Clc1ccc2c(NCCNc3nc(N4CCCC4)nc4ccccc34)ccnc2c1`, for which the GI50 in the assay on SK-MEL-2 melanoma is 1.86 µM; in the assay on OVCAR-4 ovarian, 1.28 µM; in the assay with OVCAR-5 ovarian, 2.15 µM; with MDA-MB-231 breast, 811 nM; in the assay with SW-620 colon, 100 nM; in the assay with A549 NSCLC it was 290 nM. The figures for the GI50 in the assay on T-47D breast and in the assay with HL-60(TB) leukemia were 1.6 µM and 704 nM, respectively. Also, the TGI in the assay on SK-MEL-2 melanoma was found to be 3.85 µM; with OVCAR-4 ovarian, 3.58 µM; in the assay with OVCAR-5 ovarian, 6.38 µM; with MDA-MB-231 breast it was 2.24 µM; with SW-620 colon, 1.45 µM; with A549 NSCLC, 2.54 µM. Moreover, the results for the TGI with T-47D breast and in the assay with HL-60(TB) leukemia were 3.99 µM and 1.54 µM, respectively.

`Cc1c(-c2nnc(-c3cc(Cl)c(Cl)cc3Cl)o2)nnn1-c1ccnc2c(C(F)(F)F)cccc12`: the GI50 in the assay on SK-MEL-2 melanoma is 19.9 µM; with OVCAR-4 ovarian it was 23.9 µM; with OVCAR-5 ovarian it was 32.1 µM; with MDA-MB-231 breast, 20200 nM; in the assay on SW-620 colon, 30800 nM; in the assay with A549 NSCLC it was 17800 nM. Also, the GI50 was 21.7 µM with T-47D breast and 40900 nM in the assay with HL-60(TB) leukemia. The TGI in the assay with SK-MEL-2 melanoma was 52 µM; in the assay with OVCAR-4 ovarian it was 65.8 µM; with OVCAR-5 ovarian it was 94.2 µM; with MDA-MB-231 breast, 53.2 µM; in the assay with SW-620 colon, greater than 100 µM; in the assay on A549 NSCLC, 42.9 µM. Moreover, the TGI is 77.4 µM with T-47D breast and greater than 100 µM with HL-60(TB) leukemia.

With `N#CSc1ccc(S(N)(=O)=O)cc1`, the TGI with SK-MEL-2 melanoma is greater than 100 µM; with OVCAR-4 ovarian it was 93.1 µM; with OVCAR-5 ovarian, greater than 100 µM; with MDA-MB-231 breast, greater than 100 µM; in the assay on SW-620 colon, 98.9 µM; in the assay on A549 NSCLC, greater than 100 µM. Moreover, the TGI in the assay with T-47D breast was greater than 100 µM; with HL-60(TB) leukemia, 37.1 µM.

In the case of `COc1cc(C)c(NC(=O)CN(C)C)cc1Nc1nc(Nc2cccc(F)c2C(N)=O)c2cc[nH]c2n1`, the GI50 was 0.479 µM with SK-MEL-2 melanoma; 2.92 µM in the assay on OVCAR-4 ovarian; 0.0336 µM in the assay on OVCAR-5 ovarian; 2660 nM with MDA-MB-231 breast; 168 nM in the assay with SW-620 colon; 945 nM with A549 NSCLC. For the same compound, the GI50 with T-47D breast was 3.81 µM; in the assay on HL-60(TB) leukemia it was 20.5 nM. Besides, the TGI with SK-MEL-2 melanoma was determined as 3.32 µM; in the assay with OVCAR-4 ovarian, 7.43 µM; in the assay with OVCAR-5 ovarian, 3.63 µM; in the assay with MDA-MB-231 breast, 6.72 µM; with SW-620 colon, 3.49 µM; in the assay on A549 NSCLC it was 4.82 µM. Moreover, the results for the TGI with T-47D breast and in the assay with HL-60(TB) leukemia were 8.38 µM and 0.875 µM, respectively.

Take `O=NN(CCCl)C(=O)N[C@H]1CCCC[C@@H]1Cl`: the TGI in the assay with SK-MEL-2 melanoma, in the assay with OVCAR-4 ovarian, in the assay on SW-620 colon, in the assay on DLD-1 colon, in the assay with A549 NSCLC and in the assay on XF 498 CNS was greater than 100 µM throughout. The compound also came in with a TGI in the assay with HL-60(TB) leukemia of 42.7 µM.

`COC(C)(C)[C@H](O)C(O)CC(C)[C@@H]1CCC23CC12CCC1[C@@]2(C)CCC(OC(C)=O)C(C)(C)C2CC(OC2OC(COC(C)=O)C(O)C(O)C2O)[C@]13C` (some centres undefined): the GI50 is 4.34 µM in the assay on SK-MEL-2 melanoma; 7.01 µM in the assay with OVCAR-4 ovarian; 3.92 µM in the assay on OVCAR-5 ovarian; 4670 nM with SW-620 colon; 3.13 µM with DLD-1 colon; 3670 nM in the assay on A549 NSCLC. Further, in the assay with HL-60(TB) leukemia, the GI50 was 2550 nM. Besides, the TGI with SK-MEL-2 melanoma was 17.6 µM and 14.8 µM; in the assay on OVCAR-4 ovarian, 13.1 µM and 21.3 µM; in the assay on OVCAR-5 ovarian, 8.54 µM and 14.3 µM; in the assay on SW-620 colon, 13.7 µM and 15.3 µM; with DLD-1 colon, 6.29 µM and 9.73 µM; in the assay with A549 NSCLC, 10.1 µM and 13.8 µM. Moreover, the TGI with HL-60(TB) leukemia was 3.09 µM and 6.18 µM.

For the compound `COc1ccc(C(c2cc3c(cc2O)OCO3)N2CCOCC2)cc1OC` (centres undefined), the TGI worked out at 32.5 µM in the assay with SK-MEL-2 melanoma; 29 µM in the assay with OVCAR-4 ovarian; 21.5 µM in the assay with OVCAR-5 ovarian; 15.8 µM in the assay on MDA-MB-231 breast; 14.4 µM with SW-620 colon; 51.9 µM in the assay with A549 NSCLC. The TGI in the assay with T-47D breast came out at 45.8 µM; in the assay with HL-60(TB) leukemia, 79.8 µM.

For `COC(=O)C(=O)C(C(=O)OC)C(=O)C(=O)Nc1cc(Cl)c(Cl)cc1Cl` (centres undefined), the TGI in the assay on SK-MEL-2 melanoma, with OVCAR-4 ovarian, with OVCAR-5 ovarian, with DLD-1 colon, in the assay with A549 NSCLC and in the assay on XF 498 CNS was greater than 100 µM throughout. In the assay with HL-60(TB) leukemia, this compound gave a TGI greater than 100 µM.
